Measurements from patent US6603057B1, “Heterogenous and homogeneous mouse variants lacking sno gene” (Japan Science and Technology Corporation, priority 1999, dated 2003).

System: wild type and sno^+/− mice
Assay: Tumor susceptibility: survival after weekly carcinogen DMBA treatment
Assay type: in vivo, mouse
Conditions: DMBA weekly to dorsal surface, observation period of 80 days
Description: In the next experiment, in order to compare the tumor susceptibility of wild type and sno^+/− mice, the carcinogen 9,10-dimethyl-1,2-benzanthracene (DMBA) was administered every week. […] The major tumor type observed was malignant lymphomas, and fibromas were also found at a lower frequency. Lymphomas in sno^+/− mice were aggressive metastatic malignancies, and generated tumors in the thymus glands [refer to FIGS. 4(b) and (c)]. The fact that these originated from T-cells is due to the tumor cells homogeneously expressing the TCRαβ markers, but not the IgM marker [refer to FIGS. 4(d) and (e)].
DMBA treatments were initiated from the beginning at postnatal day 2-5 and continuing weekly thereafter by administering 50 μl of a solution containing DMBA 1.25 mg per ml acetone to the dorsal surface. Mice were monitored regularly and killed when overall health condition was deteriorated.
At first, 8-10 mice in each cohort were used for collecting histopathological informations, subsequently, the site of tumor and the site of metastatic organ were detected and specified by detailed pathological analysis.

SMILES: Cc1c2ccccc2c(C)c2c1ccc1ccccc12 [DMBA, 9,10-dimethyl-1,2-benzanthracene]
- survived this treatment (sno^+/− female mice (n=20)): 30%
- survived this treatment (sno^+/− male mice (n=20)): 50%
- survival under this treatment (wild-type mice (n=40)): most of the wild-type mice (n=40) survived
